Measurements reported in paper PMC3136361 (Journal of medicinal chemistry, 2011).
Where “and” joins values, the source holds several entries; their conditions need not be identical. Identical values can stand only once.

Tests used:
[1] = Parallel artificial membrane permeability assay; conditions: for passive permeability through artificial membrane (in words): PAMPA
[2] = Intrinsic clearance in mouse hepatocytes; type: in vitro ADME
[3] = system: SREBP-responsive genes in DU145 cells; experiment: Real-time RT-PCR of SREBP-responsive genes in DU145 cells; type: cell-based, human
ob/ob mice = conditions: male ob/ob mice, oral in chow, 8 wk
SREBP = experiment: SREBP-responsive; conditions: luciferase reporter assay, CHO-K1 cells

In the case of CC(=O)CC(c1ccccc1)c1c(O)c2ccccc2oc1=O (stereo not drawn) [Warfarin, reference compound], the “Reference PAMPA Papp” value ([1]; Warfarin 10 μM, control for membrane integrity, run alongside each compound) is reported as 5.34 10^−6 cm/sec and 5.58 10^−6 cm/sec.

In the case of CCCc1cc(-c2nc(-c3ccc(C)cc3)cs2)ccn1 [Compound 1, fatostatin], the “metabolic stability (in words)” value [2] is reported as “low metabolic stability”.

In the case of CCCc1cc(-c2nc(-c3ccc(NS(C)(=O)=O)cc3)cs2)ccn1 [Compound 24, N-(4-(2-(2-Propylpyridin-4-yl)thiazol-4-yl)phenyl)methanesulfonamide], the “effect on transcription of three control genes unrelated to SREBP” value ([3]; RPL13A, B2M, GAPDH) is reported as “no significant effect”, the “downregulation of transcription of nine SREBP-responsive genes” value ([3]; real-time RT-PCR, all nine genes) is reported as “at least 25%” and the “less weight than control mice” value (ob/ob mice) is reported as 8–9%. The “passive permeability through artificial membrane (in words)” value [1] was “high” and the “metabolic stability (in words)” value [2] was “moderately stable”.

In the case of CCCc1cc(-c2ccc(-c3ccc(C)cc3)cc2)ccn1 [Compound 15], the “activity in reporter assay (in words)” value (SREBP) is reported as “large loss of activity”.

With CCCc1cc(-c2nc(-c3ccccc3)cs2)ccn1 [Compound 5a] the “decrease in potency relative to fatostatin” value (SREBP) was “fourfold”.

For Cc1ccc(-c2csc(-c3ccccc3)n2)cc1 [Compound 12], the “decrease in potency relative to fatostatin” value (SREBP) was 3.3 fold.

With CCCc1cc(-c2nc(-c3ccc(NC(C)C)cc3)cs2)ccn1 [Compound 20, N-Isopropyl-4-(2-(2-propylpyridin-4-yl)thiazol-4-yl)aniline] the “passive permeability through artificial membrane (in words)” value [1] was “moderate” and the “metabolic stability (in words)” value [2] was “low metabolic stability”.
